One molecule from ChEMBL document CHEMBL1136937, “Discovery of a potent class I selective ketone histone deacetylase inhibitor with antitumor activity in vivo and optimized pharmacokinetic properties” (J Med Chem, 2009) can be followed below.

One data set has as its target Histone deacetylase 5 (Homo sapiens, UniProt Q9UQL6). Put plainly: Inhibition of wild type His-tagged HDAC5 catalytic domain T678-L1122 expressed in Escherichia coli.
Data set [1] in a line: Plasma concentration in Sprague-Dawley rat at 3 mg/kg, po after 24 hrs. Format: ADME, organism-based. Details: dose 3 mg/kg, route oral.
Data set [2] concerns HCT-116. Description: Antiproliferative activity against human P53 expressing HCT116 cells after 72 hrs by celltiter-blue cell viability assay. Format: functional. The note with it: Homo sapiens, HCT-116, 72 h. (Resazurin is reduced to fluorescent resorufin, in cell work by metabolically active cells.)
Data set [3] is described as follows: Toxicity in ip dosed BALB/c nu/nu mouse assessed as maximum tolerated dose. The data set is classed as organism-based. The settings on record: in vivo.
Data set [4] is described as follows: Volume of distribution at steady state in Beagle dog at 1 mg/kg, iv and 2 mg/kg, po. The data set is classed as ADME, organism-based, Canis lupus familiaris. The note with it: in vivo, read-out: Vdss.
The next data set concerns G-401. Description: Antiproliferative activity against human G401 cells after 72 hrs by celltiter-blue cell viability assay. The data set is classed as functional. The settings on record: Homo sapiens, G-401, 72 h.
A short description of data set [5]: Clearance in Beagle dog at 1 mg/kg, iv and 2 mg/kg, po. Format: ADME, organism-based, Canis lupus familiaris. The note with it: in vivo.
Data set [6] is described as follows: Volume of distribution at steady state in Sprague-Dawley rat at 3 mg/kg, iv and 3 mg/kg, po. The data set is classed as ADME, organism-based. The note with it: in vivo, read-out: Vdss.
Data set [7] concerns HCT-116. Description: Antitumor activity against human HCT116 cells xenografted BALB/c nu/nu mouse assessed as reduction in tumor growth at 10 mg/kg, ip administered once daily for 5 days per week. The data set is classed as functional, organism-based. Details: dose 10 mg/kg.
In a further data set the test system is Mus musculus. Description: Toxicity in BALB/c nu/nu mouse assessed as adverse effect at 10 mg/kg, ip administered once daily for 5 days per week. Format: organism-based. Details: dose 10 mg/kg, route intraperitoneal. The settings on record: in vivo, 120 h.
The next data set has as its target Cytochrome P450 2C9 (Homo sapiens, UniProt P11712). Description: Inhibition of CYP2C9. The data set is classed as ADME.
A further data set concerns HeLa. Description: Antiproliferative activity against human P53-deficient HeLa cells after 72 hrs by celltiter-blue cell viability assay. Format: functional.
The subject of another data set is MCF7. Put plainly: Antiproliferative activity against human MCF7 cells after 72 hrs by celltiter-blue cell viability assay. The data set is classed as functional. The note with it: Homo sapiens, MCF7, 72 h.

pIC50: −log10 of the molar value. The source made the active and inactive calls. No cut-off for these calls is given here.

As usually defined, the pIC50 is −log10 of the IC50, conventionally taken in molar units. Usually CC50 stands for the concentration giving 50% cytotoxicity. Read a low CC50 as harm at low concentration. Broadly, the MTD is the largest dose that counted as tolerated.

Cytochrome P450 2C9, sequence (P11712 whole entry): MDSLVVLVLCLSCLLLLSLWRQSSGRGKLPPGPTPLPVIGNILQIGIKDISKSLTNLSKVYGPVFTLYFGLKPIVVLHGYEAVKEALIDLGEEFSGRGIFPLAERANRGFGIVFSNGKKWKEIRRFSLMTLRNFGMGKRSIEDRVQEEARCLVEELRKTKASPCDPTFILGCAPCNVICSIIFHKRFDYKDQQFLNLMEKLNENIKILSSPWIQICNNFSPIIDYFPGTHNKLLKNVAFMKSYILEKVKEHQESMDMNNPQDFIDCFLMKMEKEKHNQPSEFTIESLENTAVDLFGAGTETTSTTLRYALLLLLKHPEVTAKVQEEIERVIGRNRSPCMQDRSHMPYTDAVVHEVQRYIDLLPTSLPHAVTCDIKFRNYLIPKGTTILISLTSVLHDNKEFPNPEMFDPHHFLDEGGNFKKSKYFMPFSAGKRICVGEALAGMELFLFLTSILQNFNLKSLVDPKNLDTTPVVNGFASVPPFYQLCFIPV
Histone deacetylase 5, sequence (Q9UQL6 whole entry, the tested form may be a part): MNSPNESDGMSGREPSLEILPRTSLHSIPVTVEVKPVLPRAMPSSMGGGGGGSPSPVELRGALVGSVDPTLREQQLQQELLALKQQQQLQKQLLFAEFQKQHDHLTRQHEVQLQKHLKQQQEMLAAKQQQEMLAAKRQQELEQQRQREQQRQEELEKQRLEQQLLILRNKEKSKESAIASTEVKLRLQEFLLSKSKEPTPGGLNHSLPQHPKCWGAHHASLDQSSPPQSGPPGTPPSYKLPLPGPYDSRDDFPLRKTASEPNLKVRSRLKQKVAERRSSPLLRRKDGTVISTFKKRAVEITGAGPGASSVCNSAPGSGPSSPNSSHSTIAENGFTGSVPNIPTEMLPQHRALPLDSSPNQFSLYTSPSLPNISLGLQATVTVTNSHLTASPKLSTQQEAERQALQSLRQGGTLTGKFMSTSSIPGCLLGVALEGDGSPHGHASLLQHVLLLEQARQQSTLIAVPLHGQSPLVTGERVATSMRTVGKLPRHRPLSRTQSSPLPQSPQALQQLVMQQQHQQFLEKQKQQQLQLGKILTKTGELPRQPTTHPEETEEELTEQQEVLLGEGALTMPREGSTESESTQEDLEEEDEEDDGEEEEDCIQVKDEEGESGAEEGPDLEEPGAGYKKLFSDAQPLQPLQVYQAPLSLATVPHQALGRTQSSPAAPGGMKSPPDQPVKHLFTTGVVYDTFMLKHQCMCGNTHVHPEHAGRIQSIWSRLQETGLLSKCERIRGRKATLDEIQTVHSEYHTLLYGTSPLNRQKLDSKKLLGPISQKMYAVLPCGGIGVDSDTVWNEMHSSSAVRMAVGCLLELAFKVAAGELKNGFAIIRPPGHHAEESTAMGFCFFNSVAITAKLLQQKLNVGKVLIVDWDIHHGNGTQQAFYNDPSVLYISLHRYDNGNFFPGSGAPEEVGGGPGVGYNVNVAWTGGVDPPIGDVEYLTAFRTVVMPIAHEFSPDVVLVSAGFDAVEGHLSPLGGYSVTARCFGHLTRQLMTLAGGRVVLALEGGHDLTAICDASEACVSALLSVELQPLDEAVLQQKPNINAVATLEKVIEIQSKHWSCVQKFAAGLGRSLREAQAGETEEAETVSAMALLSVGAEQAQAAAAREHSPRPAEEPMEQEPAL

Regarding `CCC(=O)CCCCC[C@H](NC(=O)C1CN(C)C1)c1ncc(-c2cc3ccccc3nc2OC)[nH]1`, the values for the pIC50 at Histone deacetylase 5 and against Cytochrome P450 2C9 were less than 5.00 and 5.26, respectively. The molecule further showed a concentration at 24 h in data set [1] of more than 100 nM. The 50% cytotoxic concentration (CC50) in the data set on HCT-116 [2] was 220 nM; in the data set with G-401 it was 370 nM; with HeLa, 135 nM; with MCF7, 750 nM. The MTD in data set [3] turned out to be 10 mg/kg. In addition, the Vd in data set [4] is 3.5 L/kg; in data set [6] it was 7.9 L/kg. In [5], the clearance came to 4 mL/min/kg. The result with HCT-116 [7] was Active. Further, in the data set on Mus musculus, the Activity result was “Non-toxic”.
